The term EC50 denotes the concentration at which the effect is half-maximal.

T1 sequence (P21554 whole entry): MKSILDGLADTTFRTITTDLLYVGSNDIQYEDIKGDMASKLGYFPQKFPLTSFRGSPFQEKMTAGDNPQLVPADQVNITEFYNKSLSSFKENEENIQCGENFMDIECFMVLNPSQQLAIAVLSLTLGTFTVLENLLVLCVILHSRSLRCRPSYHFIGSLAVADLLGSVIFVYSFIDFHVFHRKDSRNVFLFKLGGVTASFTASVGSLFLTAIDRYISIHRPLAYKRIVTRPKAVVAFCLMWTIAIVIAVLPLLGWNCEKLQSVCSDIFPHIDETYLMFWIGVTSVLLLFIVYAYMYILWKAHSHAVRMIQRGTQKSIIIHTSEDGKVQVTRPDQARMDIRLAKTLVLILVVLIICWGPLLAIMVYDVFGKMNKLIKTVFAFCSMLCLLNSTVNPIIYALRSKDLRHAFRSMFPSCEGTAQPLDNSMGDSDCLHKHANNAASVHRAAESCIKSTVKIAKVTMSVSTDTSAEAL

One assay has as its target T1, human CB1 receptor (Homo sapiens, UniProt P21554).
T1 construct: gene CNR1; recombinant receptor in CHO-K1 AequoScreen cells (aequorin luminescence line, Revvity ES-110-AF)
Briefly: aequorin luminescence agonist assay, CHO-K1 cells. The format is cell-based. Particulars: agonist mode, tested up to 60 uM; silanized plastic, glass vials; 0.05% BSA assay medium.
For `CCCCCc1cc(OC(C)=O)c2c(c1)OC(C)(C)[C@@H]1CC[C@H](C)C[C@@H]21` [(9S)-HHC-O], the EC50 n.d. entry is “(9S)‐HHC‐O did not activate the CB1 receptor”.

The target of another assay is T1, human CB1 receptor. Briefly: aequorin luminescence agonist assay, CHO-K1 cells. The conditions noted are these: read-out: EC50 (95% CI). In kind it is cell-based. The source says: aequorin luminescence agonist assay, CHO-K1 cells on human CB1 receptor
With `CCCCCc1cc(OC(C)=O)c2c(c1)OC(C)(C)[C@@H]1CC[C@@H](C)C[C@@H]21` [(9R)-HHC-O], the EC50 is > 33 µM. The same measure, in the same setting: the same measure for `CCCCCCCc1cc(O)c2c(c1)OC(C)(C)[C@@H]1CC[C@@H](C)C[C@@H]21` [(9R)-HHC-P]: 0.0444 µM; for `CCCCCc1cc(O)c2c(c1)OC(C)(C)[C@@H]1CC[C@@H](C)C[C@@H]21` [(9R)-HHC]: 0.101 µM; for `CCCCCCCc1cc(O)c2c(c1)OC(C)(C)[C@@H]1CC[C@H](C)C[C@@H]21` [(9S)-HHC-P]: 0.134 µM. Turning to `CCCCCc1cc(O)c2c(c1)OC(C)(C)[C@@H]1CC[C@H](C)C[C@@H]21` [(9S)-HHC], the EC50 amounted to 1.19 µM. On the same count and under the same terms, the value for `CCCCCn1cc(C(=O)c2cccc3ccccc23)c2ccccc21` [JWH-018, reference compound] was 0.0225 µM.

Source of the values: PMC11994375, “In vitro activation of the CB1 receptor by the semi‐synthetic cannabinoids hexahydrocannabinol (HHC), hexahydrocannabinol acetate (HHC‐O) and hexahydrocannabiphorol (HHC‐P)” (Drug Testing and Analysis, 2024).
